From US8546524B2, “Smoothened polypeptides and methods of use” (The United States of America, as represented by the …, priority 2006, dated 2013)
No end group written: not given here. *: point of attachment. Myristoyl = CCCCCCCCCCCCCC(=O)*

Assays:
[1] = test system: SK-Mel2 melanoma cells; type: cell-based; conditions: for IC50: MTT assay, SK-Mel2 melanoma cells, 48 hour exposure, Table 4; for inhibitory activity on SK-Mel2 melanoma cells: 48 hours of exposure, second intracellular loop peptides, comment on Table 4; for inhibitory activity of third loop peptides: comment on Table 5; for inhibition of proliferation of SK-Mel2 cells: 60 hours exposure, FIG. 6
Method: (§1) DU145 prostate cancer cells, PC3 prostate cancer cells, MCF7 breast cancer cells, or Mel-SK-2 melanoma cells (American Type Culture Collection, Manassas, Va.) are inoculated in 96 well plates at 200-400 cells/well density in DMEM medium containing 10% fetal bovine serum and allowed to attach for 24 hours. Cell suspension of 100 μl is used for each well. Polypeptides in 100 μl medium at 2× concentration are added the next day and kept in the CO2 incubator for 48 hours While the polypeptides are added at a final concentration between 1 nM and 10 μM, assays are performed on extra reference plates to determine the cell population density at time 0 (T0). The cells are stained with Promega Non-Radioactive Cell Proliferation Assay Kit (MTT) according to manufacture's protocol. The absorbance of the wells is determined at 544 nm by a FLUOstar/POLARstar® Galaxy MicroplateReader (BMG Labtechnologies GmbH, Germany). The assays are performed on control (C) and test (T) cells. Cellular responses are calculated from the data using the following formula: 100×[(T−T0)/(C−T0)] for T>T0 and 100×[(T−T0)/T0] for T<T0.
(§2) Polypeptides based on the second or third intracellular loop of SMO (SMOi2 or i3 polypeptides) (as shown in Table 1) are synthesized as described in Example 1 and are tested as described in Example 2 using MCF-7 breast cancer cells or SK-Mel2 melanoma cells. The IC50 of each peptide as determined by the MTT assay in SK-Mel2 melanoma cells after 48 hour exposure to the peptide is shown in Tables 4 and 5.
Peptides SMOi2-18 and SMOi2-21 are made as essentially described in Example 1 and tested as described in Example 2 using SK-Mel2 cells. Cells are exposed to polypeptides or peptidomimetics for 60 hours.

[2] = Critical micelle concentration by WMC-77 fluorescence; type: physicochemical; conditions: deionized water, 25° C., WMC-77 0.4 μM
Source text: To monitor the formation of hydrophobic nanoparticles, a fluorescing imidazoacridone compound WMC-77 (5-{3-[4-(aminopropyl)-piperazin-1-yl]-propylamino}-2,10b-diaza-aceanthrylen-6-one) is used (Tarasov et al., Photochem. Photobiol. 78: 313-322 (2003)). Compounds like WMC-77 tend to enhance their intrinsic fluorescence dramatically when entering an amphiphilic environment of biological macromolecules like DNA (Tarasova et al., 2003, supra) or hydrophobic core of typical micelles (Tarasov et al., Photochem. Photobiol. 70: 568-578 (1999)). […] Atmospheric oxygen quenching is found to be unimportant, since similar values of fluorescence intensity from BIAs are obtained before and after nitrogen purging. […] Uncorrected fluorescence emission spectra are obtained at 25° C. on a Single Photon Counting Spectrofluorometer FLUOROMAX®-2 (Horiba Jobin Yvon, Edison, N.J.). […]
The increase of peptide/fluorophore ratio causes the permanent increase of WMC-77 fluorescence emission intensity, leveling of at ˜2 μM. The changes in the fluorescence signal are similar to those observed during transfer of imidazoacridones from aqueous to non-polar media such as organic solvents (Tarasov et al., 1999, supra), to the cores of classic surfactant micelles (Tarasov et al., 1999, supra) or upon binding to DNA (Tarasov et al., 2003, supra). […]

[3] = test system: gastric adenocarcinoma cells; experiment: Growth inhibition of gastric adenocarcinoma cells (viable cell mass); type: cell-based; conditions: 5 or 10 μM, FIG. 2
[4] = test system: MCF-7 breast cancer cells; experiment: MTT growth inhibition assay in MCF-7 breast cancer cells; type: cell-based; conditions: 48-hour treatment, FIG. 1 / FIG. 3
Method: as §1, with “The cells are stained with Promega Non-Radioactive Cell Proliferation Assay Kit (MTT) according to manufacture's protocol.” left out, “The assays are performed on control (C) and test (T) cells.” left out, “T<T0. […]” for “T<T0.”
as §2

Ac-AKFSTHWAYTLK-εPal (all D-) [SMOi2-17]
IC50 [1]: 0.4 ± 0.1 nM

Ac-GTTYQPLSGKTSYK-εPal [SMOi2-7]
inhibitory activity on SK-Mel2 melanoma cells [1]: potent inhibitors

Ac-KFSTHWAYTLK- εPal (all D-) [SMOi2-20]
inhibitory activity on SK-Mel2 melanoma cells [1]: most potent inhibitors
IC50 [1]: 0.3 ± 0.1 nM

Ac-LAKFSTHWAYTLK-ε-Pal (all D-) [SMOi2-16]
IC50 [1]: 6 ± 0.5 nM

Ac-LLSEKAASKINETMLRK-[…]ε-Pal [SMO i3-6]
inhibitory activity of third loop peptides [1]: among the most potent polypeptides tested

Ac-LTYAWHTSFKAL [SMOi2-9]
inhibitory activity on SK-Mel2 melanoma cells [1]: significantly reduces the inhibitory activity

Ac-LTYAWHTSFKALGTTYQPLSGKTSYK- ε-Pal [SMOi2-4]
IC50 [1]: 1000 ± 100 nM

Ac-YAWHTSFKALGTTYQPLSGKTSYK- εPal [SMOi2-5]
IC50 [1]: 1000 ± 100 nM

Myristoyl-LTYAWHTSFKAL [SMOi2-26]
inhibitory activity on SK-Mel2 melanoma cells [1]: most potent inhibitors
potency relative to palmitoyl peptide (fold less potent) ([1]; myristoyl instead of palmitoyl residue): 2.5 fold

Pal-LTYABpaHTSFKAL [SMOi2-18]
inhibitory activity on SK-Mel2 melanoma cells [1]: fairly active
inhibition of proliferation of SK-Mel2 cells [1]: even more potent than that of the polypeptide counterpart, SMOi2-8

Pal-LTYABpaHTSFKAL-Hcy-Biotin [SMOi2-21]
inhibitory activity on SK-Mel2 melanoma cells [1]: totally abolishes the activity
inhibition of proliferation of SK-Mel2 cells [1]: even more potent than that of the polypeptide counterpart, SMOi2-8

Pal-LTYAWHTSFK [SMOi2-12]
inhibitory activity on SK-Mel2 melanoma cells [1]: most potent inhibitors

Pal-LTYAWHTSFKA [SMOi2-11]
inhibitory activity on SK-Mel2 melanoma cells [1]: most potent inhibitors

Pal-LTYAWHTSFKAL [SMOi2-8]
inhibitory activity on SK-Mel2 melanoma cells [1]: most potent inhibitors
critical micelle concentration [2]: 0.5 to 1 µM

Pal-LTYAWHTSFKALGTTYQP [SMOi2-6]
inhibitory activity on SK-Mel2 melanoma cells [1]: potent inhibitors

Pal-LTYAWHTSFKALGTTYQPLSGKTSYK- ε-Pal [SMOi2-23]
inhibitory activity on SK-Mel2 melanoma cells [1]: most potent inhibitors

Pal-LTYAWHTSFKALGTTYQPLSGKYSY [SMOi2-1]
inhibition of growth of gastric adenocarcinoma cells compared with cyclopamine [3]: as well or better than cyclopamine
inhibition of growth of MCF-7 cells [4]: inhibit the growth of MCF-7 cells

Pal-TYAWHTSFKAL [SMOi2-10]
inhibitory activity on SK-Mel2 melanoma cells [1]: potent inhibitors

PalLFSIKSNHPGLLSEKAASKINETMLR [SMO i3-4]
inhibitory activity of third loop peptides [1]: significantly less active

PalLTYAWHTSFKAL (All D) [SMOi2-24]
inhibitory activity on SK-Mel2 melanoma cells [1]: most potent inhibitors

PalRGVMTLFSIKSNHPGLLS [SMO i3-8]
inhibitory activity of third loop peptides [1]: among the most potent polypeptides tested

PalRGVMTLFSIKSNHPGLLSEKA [SMO i3-2]
inhibitory activity of third loop peptides [1]: among the most potent polypeptides tested

PalRGVMTLFSIKSNHPGLLSEKAASKINETMLR [SMO i3-1]
inhibition of growth of gastric adenocarcinoma cells compared with cyclopamine [3]: as well or better than cyclopamine
inhibitory activity of third loop peptides [1]: among the most potent polypeptides tested
inhibition of growth of MCF-7 cells [4]: most significant effect on cell growth

SEKAASKINETMLRK-ε-Pal [SMO i3-12]
inhibitory activity of third loop peptides [1]: among the most potent polypeptides tested

VWFVVLTYAWHTSFKAL [SMOi2-14]
inhibitory activity on SK-Mel2 melanoma cells [1]: does not overcome the loss of activity
IC50 [1]: > 5000 nM

WFVVLTYAWHTSFKAL [SMOi2-15]
inhibitory activity on SK-Mel2 melanoma cells [1]: does not overcome the loss of activity
IC50 [1]: > 5000 nM
